Results taken from ChEMBL document CHEMBL5528027, “Target identification, and optimization of dioxygenated amide derivatives as potent antibacterial agents with FabH inhibitory activity” (Eur J Med Chem, 2024).
Values after ≈ are worked out from the molar mass of the structure shown. Active and inactive are the calls of the source. No cut-off for these calls is given here.

Assays:
[1] = target: T1, Beta-ketoacyl-[acyl-carrier-protein] synthase III (Escherichia coli K-12, UniProt P0A6R0); assay: Binding affinity to Escherichia coli FabH assessed as dissociation constant by Isothermal titration calorimetry method
T1 sequence (P0A6R0 whole entry): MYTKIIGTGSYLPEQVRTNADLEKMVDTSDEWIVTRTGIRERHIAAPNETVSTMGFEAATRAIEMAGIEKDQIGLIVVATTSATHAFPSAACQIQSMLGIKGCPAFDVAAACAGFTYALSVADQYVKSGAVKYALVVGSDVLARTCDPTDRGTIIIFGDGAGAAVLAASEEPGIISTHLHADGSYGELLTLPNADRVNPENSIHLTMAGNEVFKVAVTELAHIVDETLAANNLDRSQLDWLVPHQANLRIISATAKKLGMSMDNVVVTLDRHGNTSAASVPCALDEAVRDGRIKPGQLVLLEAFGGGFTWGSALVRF

Streptococcus pneumoniae = assay: Antibacterial activity against Streptococcus pneumoniae assessed as reduction in bacterial growth measured after 24 hrs by two-fold serial dilution method; format: functional
[2] = target: T2, Beta-ketoacyl-[acyl-carrier-protein] synthase III (Escherichia coli K-12) (UniProt P0A6R0); assay: Binding affinity to Escherichia coli FabH assessed as change in Gibbs free energy by Isothermal titration calorimetry method
T2 sequence (whole entry): T1 sequence (P0A6R0 whole entry)

[3] = target: T2, Beta-ketoacyl-[acyl-carrier-protein] synthase III (Escherichia coli K-12); assay: Binding affinity to Escherichia coli FabH assessed as change in entropy by Isothermal titration calorimetry method
Staphylococcus aureus [4] = assay: In vivo antibacterial activity against Staphylococcus aureus infected in Sprague-Dawley rat skin infection model assessed in reduction of wound pus measured after 3 days; format: functional, organism-based; conditions: time 3.0 day
[5] = Cytotoxicity against mouse NIH3T3 cells incubated for 24 hrs by MTT analysis; format: toxicity, cell-based
Erythrocyte = assay: Hemolytic activity in human erythrocytes assessed as hemolysis by spectrophotometric analysis; format: toxicity, cell-based
Bacillus subtilis = assay: Antibacterial activity against Bacillus subtilis assessed as reduction in bacterial growth measured after 24 hrs by two-fold serial dilution method; format: functional
Staphylococcus aureus [6] = assay: In vivo antibacterial activity against Staphylococcus aureus infected in Sprague-Dawley rat skin infection model assessed in shrink of wound area measured after 3 days; format: functional, organism-based; conditions: time 3.0 day
Klebsiella pneumoniae = assay: Antibacterial activity against Klebsiella pneumoniae assessed as reduction in bacterial growth measured after 24 hrs by two-fold serial dilution method; format: functional
Staphylococcus aureus [7] = assay: In vivo antibacterial activity against Staphylococcus aureus infected in Sprague-Dawley rat skin infection model assessed in decrease in number of inflammatory cells within wound tissue measured after 3 to 10 days by H and E staining based analysis; format: functional, organism-based; conditions: time 3-10 day
Staphylococcus aureus [8] = assay: Antibacterial activity against Staphylococcus aureus assessed as reduction in bacterial growth measured after 24 hrs by two-fold serial dilution method; format: functional
Staphylococcus aureus [9] = assay: In vivo antibacterial activity against Staphylococcus aureus infected in Sprague-Dawley rat skin infection model assessed in reduction of wound size measured after 6 days; format: functional, organism-based; conditions: time 6.0 day
[10] = target: T2, Beta-ketoacyl-[acyl-carrier-protein] synthase III (Escherichia coli K-12); assay: Binding affinity to Escherichia coli FabH assessed as change in enthalpy by Isothermal titration calorimetry method
Staphylococcus aureus [11] = assay: In vivo antibacterial activity against Staphylococcus aureus infected in Sprague-Dawley rat skin infection model assessed in wound healing measured after 10 days (reference value: 70.8%); format: functional; conditions: time 10 day
[12] = target: T1, Beta-ketoacyl-[acyl-carrier-protein] synthase III; assay: Inhibition of Escherichia coli FabH
Pseudomonas aeruginosa = assay: Antibacterial activity against Pseudomonas aeruginosa assessed as reduction in bacterial growth measured after 24 hrs by two-fold serial dilution method; format: functional
Escherichia coli = assay: Antibacterial activity against Escherichia coli assessed as reduction in bacterial growth measured after 24 hrs by two-fold serial dilution method; format: functional
Staphylococcus aureus [13] = assay: In vivo antibacterial activity against Staphylococcus aureus infected in Sprague-Dawley rat skin infection model assessed in reduction of wound exudation measured after 3 days; format: functional, organism-based; conditions: time 3.0 day

COC(=O)c1c[nH]c2cc(NC(=O)c3ccc4c(c3)OCCCO4)ccc12
Kd [1]: 21.5 µM | MIC (Streptococcus pneumoniae): 6.25 µg/mL (≈ 17.1 µM) | deltaG [2]: -6.4 kcal/mol | TdeltaS [3]: -73.6 kcal/mol | Activity (Staphylococcus aureus [4]): Active | IC50 at 24 h [5]: 142 µM | HC30 (Erythrocyte): > 10 µg/mL | MIC (Bacillus subtilis): 3.13 µg/mL (≈ 8.54 µM) | Activity (Staphylococcus aureus [6]): Active | MIC (Klebsiella pneumoniae): 1.56 µg/mL (≈ 4.26 µM) | Activity (Staphylococcus aureus [7]): Active | MIC (Staphylococcus aureus [8]): 3.13 µg/mL (≈ 8.54 µM) | Activity (Staphylococcus aureus [9]): Active | deltaH [10]: -80 kcal/mol | Activity (Staphylococcus aureus [11]): 94% | IC50 [12]: 2 µM | MIC (Pseudomonas aeruginosa): 1.56 µg/mL (≈ 4.26 µM) | MIC (Escherichia coli): 1.56 µg/mL (≈ 4.26 µM) | Activity (Staphylococcus aureus [13]): Active
